Reference: patent publication US20240174618A1, “SUBSTITUTED (2-HETEROARYLOXYPHENYL)SULFONATES, SALTS THEREOF AND THEIR USE AS HERBICIDAL AGENTS” (Bayer Aktiengesellschaft, priority 2021, published 2024)

Assays:
Type in all cases: in vivo
Lolium rigidum (LOLRI) = experiment: A. Herbicidal pre-emergence efficacy, LOLRI
Outline: (§1)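 Pre-emergence soil-surface spray in sandy loam pots, WP/EC in water plus 0.5% additive, 600 L/ha. Visual % damage rating after about 3 weeks in greenhouse vs. untreated; 0% = control-like, 100% = dead plants. Rates up to 1280 g/ha.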

Setaria viridis (SETVI) = experiment: A. Herbicidal pre-emergence efficacy, SETVI
Outline: as §1

Veronica persica (VERPE) = experiment: A. Herbicidal pre-emergence efficacy, VERPE; settings: for Pre-emergence efficacy against VERPE: dosage 80 g/ha
Outline: as §1

[1] = system: Amaranthus retroflexus (AMARE); experiment: B. Herbicidal post-emergence efficacy, AMARE
Outline: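 Visual percent efficacy relative to untreated controls (0% unaffected, 100% dead), scored roughly 3 weeks after foliar spraying of one-leaf-stage pot-grown plants with WP or EC preparations at application rates up to 1280 g/ha in 600 L/ha water containing 0.5% additive.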

[2] = system: Polygonum convolvulus (POLCO); experiment: C. Herbicidal pre-emergence efficacy, POLCO; settings: scored after about 3 weeks
Outline: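 Pre-emergence test: formulated compounds sprayed as aqueous suspension or emulsion with 0.5% additive at 600 l/ha onto soil covering sown seeds, at rates corresponding to 320 g/ha or less. After about 3 weeks in greenhouse, efficacy scored visually as percent versus untreated controls (100% = plants dead).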

[3] = system: Pharbitis purpurea (PHBPU); experiment: E. Herbicidal post-emergence efficacy, PHBPU
Outline: (§2)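 Greenhouse post-emergence spray, one-leaf stage (2–3 wk after sowing, sandy loam); WP/EC formulation, aqueous + 0.5% additive, 600 l/ha water; rates 320 g/ha or less. Visual rating ~3 wk later vs untreated; 0% = control-like, 100% = dead.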

Kochia scoparia (KCHSC) = experiment: E. Herbicidal post-emergence efficacy, KCHSC
Outline: as §2

[4] = system: Triticum aestivum (TRZAS); experiment: F. Post-emergence effect on useful plants, TRZAS; settings: useful plant
Outline: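 Crop plants grown in sandy loam in the greenhouse were sprayed at the one-leaf stage, 2-3 weeks after sowing, with WP or EC formulations plus 0.5% additive at 600 l/ha water. Damage was scored visually after about 3 weeks against untreated controls (0% = like control, 100% = dead).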

SMILES | Pre-emergence efficacy against LOLRI (Lolium rigidum (LOLRI); dosage 1280 g/ha) [%] | Pre-emergence efficacy against SETVI (Setaria viridis (SETVI); dosage 320 g/ha) [%] | Pre-emergence efficacy against SETVI (Setaria viridis (SETVI); dosage 1280 g/ha) [%] | Pre-emergence efficacy against VERPE in % (Veronica persica (VERPE); 320 g/ha) [%] | Pre-emergence efficacy against VERPE in % (Veronica persica (VERPE); 1280 g/ha) [%] | Pre-emergence efficacy against VERPE (Veronica persica (VERPE)) [%] | Post-emergence efficacy against AMARE ([1]; 80 g/ha) [%] | Post-emergence efficacy against AMARE ([1]; 320 g/ha) [%] | Post-emergence efficacy against AMARE ([1]; 1280 g/ha) [%] | Pre-emergence efficacy against POLCO ([2]; 320 g/ha) [%] | Post-emergence efficacy against PHBPU in % ([3]; application rate 80 g/ha) [%] | Post-emergence efficacy against PHBPU in % ([3]; application rate 320 g/ha) [%] | Post-emergence efficacy against KCHSC in % (Kochia scoparia (KCHSC); application rate 80 g/ha) [%] | Post-emergence efficacy against KCHSC in % (Kochia scoparia (KCHSC); application rate 320 g/ha) [%] | Post-emergence efficacy against TRZAS in % ([4]; application rate 80 g/ha) [%] | Post-emergence efficacy against TRZAS in % ([4]; application rate 320 g/ha) [%] | Pre-emergence efficacy against SETVI (Setaria viridis (SETVI); dosage 80 g/ha) [%] | Pre-emergence efficacy against POLCO ([2]; 80 g/ha) [%] | Pre-emergence efficacy against LOLRI (Lolium rigidum (LOLRI); dosage 320 g/ha) [%]
O=S(=O)(CCC(F)(F)F)Oc1c(Cl)cccc1Oc1ncc(Br)cn1 [Example I-32] | 90 | 90 | 100 | 90 | 100 | 90 | 100 | 100 | 100 | 100 | 80 | 80 | 90 | 100 | 0 | 20 | – | – | –
O=S(=O)(CCCC(F)(F)C(F)(F)F)Oc1c(F)cccc1Oc1ncc(Cl)cn1 [Example I-68] | 100 | 100 | 100 | 100 | 100 | – | 100 | 100 | 100 | 90 | 80 | 90 | 80 | 90 | 20 | 20 | 90 | 90 | –
O=S(=O)(CCCC(F)(F)F)Oc1c(Cl)cccc1Oc1ncc(Cl)cn1 [Example I-39] | 100 | 100 | 100 | 100 | 100 | 90 | – | 90 | 90 | 100 | 90 | 100 | 100 | 100 | 0 | 20 | 90 | 100 | 100
O=S(=O)(CCC(F)(F)F)Oc1c(F)cccc1Oc1ncc(Cl)cn1 [Example I-48] | 90 | 90 | 100 | 100 | 100 | 90 | 90 | 90 | 90 | 100 | 100 | 100 | 100 | 100 | 10 | – | 90 | 100 | 90
O=S(=O)(CCCC(F)(F)F)Oc1c(F)cccc1Oc1ncc(Cl)cn1 [Example I-49] | 90 | 100 | 100 | 100 | 100 | 90 | 90 | 90 | 100 | 100 | 100 | 100 | 100 | 100 | 20 | – | 90 | 100 | 90
Cc1cccc(Oc2ncc(Cl)cn2)c1OS(=O)(=O)CC1CC(F)(F)C1 [Example I-74] | 100 | 90 | 100 | 100 | 100 | 90 | 100 | 100 | 100 | 90 | – | 90 | – | 80 | 0 | – | – | – | –
O=S(=O)(CCC(F)(F)F)Oc1c(Cl)cccc1Oc1ncc(Cl)cn1 [Example I-38] | 100 | 100 | 100 | 90 | 100 | 90 | – | – | 90 | 100 | 100 | 100 | 100 | 100 | 10 | 20 | 90 | 100 | –
